Read-outs that look alike come from different tables or passages of the source.
Tests used:
[1] = system: Lactobacillus plantarum; assay: Minimal Inhibitory Concentration (MIC), two-fold dilution series in 96 well microplate; format: cell-based; details: for MIC: Lactiplantibacillus plantarum
Method: This is the lowest concentration of a substance or substances which can achieve complete inhibition of growth.
In order to determine the Minimal Inhibitory Concentration, a two-fold dilution series of the antimicrobial is constructed with the dilutions being made in growth media. The dilutions are made in a 96 well microplate such that each well has a final volume of 280 μl of media and antimicrobial. […] After the dilution series is constructed the wells receive an inoculum of microbe suspended in growth media such that the final concentration of microbes in the well is i˜5×10^5 cfu/ml. In these examples the test microbe used is Lactobacillus plantarum. The cultures are incubated at 37° C. for 18-24 hours, and the wells scored as positive or negative for growth based on a visual examination for turbid wells, with turbidity being an indicator of growth.
(§1) Minimal inhibitory concentrations were determined for both citric acid and hops acid at pH 6 using the protocol described above with Lactobacillus plantarum as the test microbe. Checkerboard synergy plates were constructed as described, the wells inoculated to a final concentration of ˜5×10^5 cfu/ml, incubated for 18-24 hours, and then scored visually for growth/no growth.
as §1, with “benzoic” for “citric”

[2] = system: Weisella confusa; details: cited from earlier work
[3] = system: fermentation; details: cited from earlier work

O=C(O)c1ccccc1 [Benzoic Acid, benzoic acid]
MIC ([1]; pH 6, read-out: Benzoic Acid MIC (QA) used alone): 100 mg/mL

O=C(O)CC(O)(CC(=O)O)C(=O)O [Citric Acid, citric acid]
MIC ([1]; pH 6, 37° C., 18-24 hours, complete inhibition of growth, read-out: Citric Acid MIC (QA) used alone): 100 mg/mL
Citric Acid MIC (QA) used alone ([1]; pH 6, 37° C., 18-24 hours, complete inhibition of growth): 100000 ppm

Virginiamycin
concentration required to inhibit growth of Weisella confusa [2]: over 25 mg/L
concentration that will suppress fermentation [3]: over 2 mg/L

Reference: patent publication US8772002B1, “Method for treatment of microorganisms during propagation, conditioning and fermentation using hops acid extracts and organic acid” (Hercules Incorporated, priority 2013, dated 2014)
